Source: US10710978B2, “STK4 inhibitors for treatment of hematologic malignancies” (Dana-Farber Cancer Institute, Inc., priority 2015, dated 2020)
Read-outs that look alike come from different tables or passages of the source.

Columns and labels:
Assay in all cases: KiNativ assay
Format in all cases: binding
AurA = AurA (Homo sapiens (Human), UniProt O14965); details: H929 live cell
Description: (§1) Biochemical IC50s of the compounds of the present disclosure against various kinases were measured in a KiNativ assay. Compounds were screened in duplicate at 10 μM in H929 live cell. IC50 was measured via Mass spectroscopy (MS).

BARK1 = BARK1 (Homo sapiens (Human), UniProt P25098); details: H929 live cell
Description: as §1

CDK5 = CDK5 (Homo sapiens (Human), UniProt Q00535); details: H929 live cell
Description: as §1

CaMK1d = CaMK1d (Homo sapiens (Human), UniProt Q8IU85); details: H929 live cell
Description: as §1

[1] = tested on: CaMK2a, CaMK2b, CaMK2d, CaMK2g; details: H929 live cell
Description: as §1

FRAP = FRAP (Homo sapiens (Human), UniProt P42345); details: H929 live cell
Description: as §1

GCN2 domain2 = GCN2 domain2 (Homo sapiens (Human), UniProt Q9P2K8); details: H929 live cell
Description: as §1

IRAK4 = IRAK4 (Homo sapiens (Human), UniProt Q9NWZ3); details: H929 live cell
Description: as §1

JAK1 domain1 = JAK1 domain1 (Homo sapiens (Human), UniProt P23458); details: H929 live cell
Description: as §1

LKB1 = LKB1 (Homo sapiens (Human), UniProt Q15831); details: H929 live cell
Description: as §1

LYN = LYN (Homo sapiens (Human), UniProt P07948); details: H929 live cell
Description: as §1

MAP2K1, MAP2K2 = details: 10 μM, H929 live cell; range class
Description: as §1

MAP2K3 = MAP2K3 (Homo sapiens (Human), UniProt P46734); details: H929 live cell
Description: as §1

MAP2K6 = MAP2K6 (Homo sapiens (Human), UniProt P52564); details: H929 live cell
Description: as §1

MAP3K2, MAP3K3 = details: H929 live cell
Description: as §1

MARK2, MARK3 = details: H929 live cell
Description: as §1

MAST3 = MAST3 (Homo sapiens (Human), UniProt O60307); details: H929 live cell
Description: as §1

MLK3 = MLK3 (Homo sapiens (Human), UniProt Q16584); details: H929 live cell
Description: as §1

MSK1 domain1 = MSK1 domain1 (Homo sapiens (Human), UniProt O75582); details: H929 live cell
Description: as §1

MSK2 domain1 = MSK2 domain1 (Homo sapiens (Human), UniProt O75676); details: H929 live cell
Description: as §1

NEK3 = NEK3 (Homo sapiens (Human), UniProt P51956); details: H929 live cell
Description: as §1

NEK6, NEK7 = details: H929 live cell
Description: as §1

NuaK2 = NuaK2 (Homo sapiens (Human), UniProt Q9H093); details: H929 live cell
Description: as §1

PEK = PEK (Homo sapiens (Human), UniProt Q9NZJ5); details: H929 live cell
Description: as §1

PKCi = PKCi (Homo sapiens (Human), UniProt P41743); details: H929 live cell
Description: as §1

PKR = PKR (Homo sapiens (Human), UniProt P19525); details: H929 live cell
Description: as §1

PRPK = PRPK (Homo sapiens (Human), UniProt Q96S44); details: H929 live cell
Description: as §1

RSK1 domain2 = RSK1 domain2 (Homo sapiens (Human), UniProt Q15418); details: H929 live cell
Description: as §1

SGK3 = SGK3 (Homo sapiens (Human), UniProt Q96BR1); details: H929 live cell
Description: as §1

STLK5 = STLK5 (Homo sapiens (Human), UniProt Q7RTN6); details: H929 live cell
Description: as §1

TLK1 = TLK1 (Homo sapiens (Human), UniProt Q9UKI8); details: H929 live cell
Description: as §1

[2] = tested on: ZC1/HGK, ZC2/TNIK, ZC3/MINK; details: H929 live cell
Description: as §1

p38d, p38g = details: H929 live cell
Description: as §1

p70S6K = p70S6K (Homo sapiens (Human), UniProt P23443); details: H929 live cell
Description: as §1

[3] = range class, read-out: % inhibition

Sequence of AurA (O14965 whole entry): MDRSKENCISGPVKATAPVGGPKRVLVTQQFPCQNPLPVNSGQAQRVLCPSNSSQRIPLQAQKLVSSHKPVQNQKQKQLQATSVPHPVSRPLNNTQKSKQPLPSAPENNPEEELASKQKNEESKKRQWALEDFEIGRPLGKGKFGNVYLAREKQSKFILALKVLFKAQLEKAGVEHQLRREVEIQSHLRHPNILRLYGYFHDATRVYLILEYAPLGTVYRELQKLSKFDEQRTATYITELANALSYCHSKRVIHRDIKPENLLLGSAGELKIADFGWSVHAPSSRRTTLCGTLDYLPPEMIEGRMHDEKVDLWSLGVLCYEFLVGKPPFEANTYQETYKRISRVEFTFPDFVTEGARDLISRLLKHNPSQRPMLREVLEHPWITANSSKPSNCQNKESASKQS
Sequence of PKR (P19525 whole entry): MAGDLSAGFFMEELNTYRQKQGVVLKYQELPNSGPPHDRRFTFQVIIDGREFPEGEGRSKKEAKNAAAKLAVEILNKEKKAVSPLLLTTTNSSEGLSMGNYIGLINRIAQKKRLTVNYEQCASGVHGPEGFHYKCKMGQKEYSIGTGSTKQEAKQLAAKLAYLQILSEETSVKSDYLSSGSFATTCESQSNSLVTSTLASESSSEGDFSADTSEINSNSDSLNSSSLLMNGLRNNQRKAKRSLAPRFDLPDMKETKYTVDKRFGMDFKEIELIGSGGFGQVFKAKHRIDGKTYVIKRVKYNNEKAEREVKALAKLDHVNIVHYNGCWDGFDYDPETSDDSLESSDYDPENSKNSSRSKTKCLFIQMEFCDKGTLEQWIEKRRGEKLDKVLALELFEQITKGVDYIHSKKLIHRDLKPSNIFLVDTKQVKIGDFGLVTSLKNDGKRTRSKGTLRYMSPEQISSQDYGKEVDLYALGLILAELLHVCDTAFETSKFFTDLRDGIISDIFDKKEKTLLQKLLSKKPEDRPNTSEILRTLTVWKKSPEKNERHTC
Sequence of JAK1 domain1 (P23458 whole entry, the tested form may be a part): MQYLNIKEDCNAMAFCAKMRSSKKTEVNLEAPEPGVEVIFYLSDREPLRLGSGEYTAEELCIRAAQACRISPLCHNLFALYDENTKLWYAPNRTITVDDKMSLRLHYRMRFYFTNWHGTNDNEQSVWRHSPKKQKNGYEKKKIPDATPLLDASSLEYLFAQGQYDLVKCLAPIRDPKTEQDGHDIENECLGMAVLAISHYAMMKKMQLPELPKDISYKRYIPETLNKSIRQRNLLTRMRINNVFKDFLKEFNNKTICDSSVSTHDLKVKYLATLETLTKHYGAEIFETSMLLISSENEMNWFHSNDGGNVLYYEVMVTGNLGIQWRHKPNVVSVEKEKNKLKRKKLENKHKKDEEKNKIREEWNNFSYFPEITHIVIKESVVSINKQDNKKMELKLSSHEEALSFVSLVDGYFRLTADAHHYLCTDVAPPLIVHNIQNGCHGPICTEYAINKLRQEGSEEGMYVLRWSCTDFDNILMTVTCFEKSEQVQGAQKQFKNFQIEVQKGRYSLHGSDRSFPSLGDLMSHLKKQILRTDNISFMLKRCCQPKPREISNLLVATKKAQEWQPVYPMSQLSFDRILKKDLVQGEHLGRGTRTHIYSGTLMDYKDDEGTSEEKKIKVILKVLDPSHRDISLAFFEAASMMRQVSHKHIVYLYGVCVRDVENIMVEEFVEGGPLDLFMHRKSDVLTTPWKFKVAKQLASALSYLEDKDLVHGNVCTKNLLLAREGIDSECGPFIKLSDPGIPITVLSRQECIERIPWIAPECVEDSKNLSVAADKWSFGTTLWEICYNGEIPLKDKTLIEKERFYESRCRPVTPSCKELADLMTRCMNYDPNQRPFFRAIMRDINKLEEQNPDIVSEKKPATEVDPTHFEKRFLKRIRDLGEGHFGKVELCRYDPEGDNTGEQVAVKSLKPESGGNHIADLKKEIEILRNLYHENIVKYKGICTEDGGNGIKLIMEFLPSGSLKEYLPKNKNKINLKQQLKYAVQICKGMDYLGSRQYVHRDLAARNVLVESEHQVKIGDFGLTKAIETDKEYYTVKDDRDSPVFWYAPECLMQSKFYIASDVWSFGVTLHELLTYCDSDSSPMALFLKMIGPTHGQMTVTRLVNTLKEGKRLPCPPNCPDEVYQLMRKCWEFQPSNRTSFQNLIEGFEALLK
Sequence of CaMK1d (Q8IU85 whole entry): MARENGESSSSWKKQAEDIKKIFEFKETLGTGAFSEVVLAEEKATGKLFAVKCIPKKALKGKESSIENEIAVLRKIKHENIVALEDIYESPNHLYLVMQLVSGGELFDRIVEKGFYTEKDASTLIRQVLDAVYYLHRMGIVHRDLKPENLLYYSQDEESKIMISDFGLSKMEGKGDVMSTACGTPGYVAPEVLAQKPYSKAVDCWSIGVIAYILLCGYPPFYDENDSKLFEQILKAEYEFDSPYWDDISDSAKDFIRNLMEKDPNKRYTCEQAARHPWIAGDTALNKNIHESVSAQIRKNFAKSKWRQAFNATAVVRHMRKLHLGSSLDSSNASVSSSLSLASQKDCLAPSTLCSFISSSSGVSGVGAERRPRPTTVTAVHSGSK
Sequence of MSK2 domain1 (O75676 whole entry, the tested form may be a part): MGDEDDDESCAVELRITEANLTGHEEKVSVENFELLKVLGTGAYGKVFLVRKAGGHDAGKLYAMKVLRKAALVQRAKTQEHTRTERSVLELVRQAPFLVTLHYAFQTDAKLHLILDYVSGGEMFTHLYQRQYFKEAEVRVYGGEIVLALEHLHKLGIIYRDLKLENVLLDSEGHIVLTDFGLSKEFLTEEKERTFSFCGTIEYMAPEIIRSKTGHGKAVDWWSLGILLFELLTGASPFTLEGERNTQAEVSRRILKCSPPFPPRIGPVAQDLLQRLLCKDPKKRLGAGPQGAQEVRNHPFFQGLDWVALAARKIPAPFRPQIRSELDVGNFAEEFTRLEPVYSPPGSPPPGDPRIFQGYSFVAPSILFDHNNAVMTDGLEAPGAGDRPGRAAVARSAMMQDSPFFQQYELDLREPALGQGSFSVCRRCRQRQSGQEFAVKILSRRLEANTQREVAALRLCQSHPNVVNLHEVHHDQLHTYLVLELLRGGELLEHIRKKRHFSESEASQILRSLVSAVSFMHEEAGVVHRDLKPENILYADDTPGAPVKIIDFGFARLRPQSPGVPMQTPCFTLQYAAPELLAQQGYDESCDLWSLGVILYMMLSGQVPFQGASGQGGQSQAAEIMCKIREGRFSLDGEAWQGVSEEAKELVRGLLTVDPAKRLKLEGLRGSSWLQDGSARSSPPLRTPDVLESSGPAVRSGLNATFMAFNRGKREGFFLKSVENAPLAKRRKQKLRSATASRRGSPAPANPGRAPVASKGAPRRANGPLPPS
Sequence of LYN (P07948 whole entry): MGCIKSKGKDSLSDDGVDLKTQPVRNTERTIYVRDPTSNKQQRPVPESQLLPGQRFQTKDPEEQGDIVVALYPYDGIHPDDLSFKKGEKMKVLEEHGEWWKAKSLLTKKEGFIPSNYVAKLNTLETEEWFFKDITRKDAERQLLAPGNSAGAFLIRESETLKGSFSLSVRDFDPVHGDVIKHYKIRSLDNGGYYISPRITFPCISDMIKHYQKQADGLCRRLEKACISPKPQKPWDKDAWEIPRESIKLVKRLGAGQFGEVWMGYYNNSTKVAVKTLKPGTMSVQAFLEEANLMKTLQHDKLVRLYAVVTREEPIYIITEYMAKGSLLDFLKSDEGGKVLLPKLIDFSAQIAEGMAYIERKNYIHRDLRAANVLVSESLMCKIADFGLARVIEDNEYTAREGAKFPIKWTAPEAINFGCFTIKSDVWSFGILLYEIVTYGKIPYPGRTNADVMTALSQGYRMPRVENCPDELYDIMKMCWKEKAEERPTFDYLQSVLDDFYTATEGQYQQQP
Sequence of MSK1 domain1 (O75582 whole entry, the tested form may be a part): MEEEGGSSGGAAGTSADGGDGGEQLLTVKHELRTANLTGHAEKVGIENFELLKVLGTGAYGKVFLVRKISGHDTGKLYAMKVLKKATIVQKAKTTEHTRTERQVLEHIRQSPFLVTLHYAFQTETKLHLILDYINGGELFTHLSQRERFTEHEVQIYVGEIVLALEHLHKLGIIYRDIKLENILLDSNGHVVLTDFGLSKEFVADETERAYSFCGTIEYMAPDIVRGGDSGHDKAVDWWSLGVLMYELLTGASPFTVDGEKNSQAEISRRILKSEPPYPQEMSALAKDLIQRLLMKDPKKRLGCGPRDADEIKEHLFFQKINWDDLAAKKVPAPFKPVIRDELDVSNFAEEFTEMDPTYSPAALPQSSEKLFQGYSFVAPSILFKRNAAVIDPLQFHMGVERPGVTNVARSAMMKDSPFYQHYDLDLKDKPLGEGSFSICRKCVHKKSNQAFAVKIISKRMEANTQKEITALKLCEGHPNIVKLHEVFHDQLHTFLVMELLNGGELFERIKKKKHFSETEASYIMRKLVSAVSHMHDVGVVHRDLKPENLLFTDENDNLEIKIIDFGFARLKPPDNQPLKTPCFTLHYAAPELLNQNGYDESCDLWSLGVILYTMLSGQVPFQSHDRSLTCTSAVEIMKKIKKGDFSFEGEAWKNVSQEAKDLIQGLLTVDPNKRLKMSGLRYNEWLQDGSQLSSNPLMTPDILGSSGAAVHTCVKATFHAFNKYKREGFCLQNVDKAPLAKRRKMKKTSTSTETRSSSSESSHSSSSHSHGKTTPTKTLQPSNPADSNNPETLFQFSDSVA
Sequence of MAP2K3 (P46734 whole entry): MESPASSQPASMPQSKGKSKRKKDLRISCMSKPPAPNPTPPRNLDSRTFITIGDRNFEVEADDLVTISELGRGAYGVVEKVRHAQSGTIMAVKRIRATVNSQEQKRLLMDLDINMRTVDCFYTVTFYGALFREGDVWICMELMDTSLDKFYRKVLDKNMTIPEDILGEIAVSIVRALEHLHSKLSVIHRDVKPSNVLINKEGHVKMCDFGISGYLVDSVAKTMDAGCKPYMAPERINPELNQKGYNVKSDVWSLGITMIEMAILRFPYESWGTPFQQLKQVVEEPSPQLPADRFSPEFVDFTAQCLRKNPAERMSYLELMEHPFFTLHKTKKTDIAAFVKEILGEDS

With `Nc1ncc(-c2ccc(NS(=O)(=O)C3CC3)cc2OC2CCCCC2)cc1-c1ccc2c(c1)CCNC2=O` [Compound I-65, N-(4-(6-amino-5-(1-oxo-1,2,3,4-tetrahydroisoquinolin-6-yl)pyridin-3-yl)-3-(cyclohexyloxy)phenyl) cyclopropanesulfonamide] the “inhibition (10 μM)” value (AurA) was 40.2%, the inhibition at 10 µM (AurA; [3]) was 35 to 40% and the inhibition at 10 µM (AurA; read-out: inhibition (10 μM)) was 45.4%. The inhibition at 10 µM (BARK1; [3]) was 0%, the inhibition at 10 µM (BARK1; read-out: inhibition (10 μM)) was 3.9% and the inhibition at 10 µM (CDK5; [3]) was 0%. It also gave an inhibition at 10 µM (CDK5; read-out: inhibition (10 μM)) of 4.9%, an inhibition at 10 µM (CaMK1d; [3]) of 0% and an inhibition at 10 µM (CaMK1d; read-out: inhibition (10 μM)) of 0.4%. For the same compound, the “% inhibition” value ([1]; 10 μM, range class) was 0.0%, the “inhibition (10 μM)” value [1] was 12.8% and the inhibition at 10 µM (FRAP; [3]) was 35 to 40%. The inhibition at 10 µM (FRAP; read-out: inhibition (10 μM)) was 47.9%, the inhibition at 10 µM (GCN2 domain2; [3]) was 35 to 40% and the inhibition at 10 µM (GCN2 domain2; read-out: inhibition (10 μM)) was 43.5%. For the same compound, the inhibition at 10 µM (IRAK4; [3]) was 0%, the inhibition at 10 µM (IRAK4; read-out: inhibition (10 μM)) was 32.9% and the inhibition at 10 µM (JAK1 domain1; [3]) was 0%. The inhibition at 10 µM (JAK1 domain1; read-out: inhibition (10 μM)) was 2.1%, the inhibition at 10 µM (LKB1; [3]) was 0% and the inhibition at 10 µM (LKB1; read-out: inhibition (10 μM)) was 27.4%. For the same compound, the inhibition at 10 µM (LYN; [3]) was 0%, the inhibition at 10 µM (LYN; read-out: inhibition (10 μM)) was -1.3% and the “% inhibition” value (MAP2K1, MAP2K2) was 0.0%. For the same compound, the inhibition at 10 µM (MAP2K3; [3]) was 0%, the inhibition at 10 µM (MAP2K3; read-out: inhibition (10 μM)) was -6.1% and the inhibition at 10 µM (MAP2K6; [3]) was 0%. For the same compound, the inhibition at 10 µM (MAP2K6; read-out: inhibition (10 μM)) was -15%, the “% inhibition” value (MAP3K2, MAP3K3; 10 μM, range class) was 0.0% and the “inhibition (10 μM)” value (MAP3K2, MAP3K3) was 23.3%. The “% inhibition” value (MARK2, MARK3; 10 μM, range class) was 0.0%, the “inhibition (10 μM)” value (MARK2, MARK3) was −17.2% and the inhibition at 10 µM (MAST3; [3]) was 0%. It also gave an inhibition at 10 µM (MAST3; read-out: inhibition (10 μM)) of -7.5%, an inhibition at 10 µM (MLK3; [3]) of 75 to 90% and an inhibition at 10 µM (MLK3; read-out: inhibition (10 μM)) of 82.7%. For the same compound, the inhibition at 10 µM (MSK1 domain1; [3]) was 0%, the inhibition at 10 µM (MSK1 domain1; read-out: inhibition (10 μM)) was -52.5% and the inhibition at 10 µM (MSK2 domain1; [3]) was 0%. It also gave an inhibition at 10 µM (MSK2 domain1; read-out: inhibition (10 μM)) of -83.6%, an inhibition at 10 µM (NEK3; [3]) of 0% and an inhibition at 10 µM (NEK3; read-out: inhibition (10 μM)) of -18.4%. For the same compound, the “% inhibition” value (NEK6, NEK7; 10 μM, range class) was 0.0%, the “inhibition (10 μM)” value (NEK6, NEK7) was −78.6% and the inhibition at 10 µM (NuaK2; [3]) was 35 to 40%. The inhibition at 10 µM (NuaK2; read-out: inhibition (10 μM)) was 48.7%, the inhibition at 10 µM (PEK; [3]) was 0% and the inhibition at 10 µM (PEK; read-out: inhibition (10 μM)) was -12.9%. The inhibition at 10 µM (PKCi; [3]) was 0%, the inhibition at 10 µM (PKCi; read-out: inhibition (10 μM)) was -41.2% and the inhibition at 10 µM (PKR; [3]) was 0%. It also gave an inhibition at 10 µM (PKR; read-out: inhibition (10 μM)) of -7.6%, an inhibition at 10 µM (PRPK; [3]) of 0% and an inhibition at 10 µM (PRPK; read-out: inhibition (10 μM)) of -55.9%. For the same compound, the inhibition at 10 µM (RSK1 domain2; [3]) was 0%, the inhibition at 10 µM (RSK1 domain2; read-out: inhibition (10 μM)) was -0.7% and the inhibition at 10 µM (SGK3; [3]) was 0%. For the same compound, the inhibition at 10 µM (SGK3; read-out: inhibition (10 μM)) was 13.5%, the inhibition at 10 µM (STLK5; [3]) was 0% and the inhibition at 10 µM (STLK5; read-out: inhibition (10 μM)) was -38.6%. For the same compound, the inhibition at 10 µM (TLK1; [3]) was 0%, the inhibition at 10 µM (TLK1; read-out: inhibition (10 μM)) was -1.2% and the “% inhibition” value ([2]; 10 μM, range class) was over 90%. For the same compound, the “inhibition (10 μM)” value [2] was 96.6%, the “% inhibition” value (p38d, p38g; 10 μM, range class) was 0.0% and the “inhibition (10 μM)” value (p38d, p38g) was −8.5%. The inhibition at 10 µM (p70S6K; [3]) was 0% and the inhibition at 10 µM (p70S6K; read-out: inhibition (10 μM)) was 11.1%.
